Read-outs that look alike come from different tables or passages of the source. A value given as a limit tells only on which side of the number the result lay.

The source of these data is patent US10836743B2, “Fluorinated cyclopropylamine compound, preparation method therefor, pharmaceutical composition thereof, and uses thereof” (SHANGHAI INSTITUTE OF MATERIA MEDICA, CHINESE ACADEMY OF …, priority 2016, dated 2020).

The test system of the assay is leukemia cells MV4-11. Description: Inhibitory activity on growth by MTS method. It counts as cell-based. To be noted: Homo sapiens. As for the experimental part:
2. Test of Inhibitory Activities of Compound on Growth by MTS Method Experimental Principle:
MTS assay detects the inhibitory effect of the tested compound to the growth of leukemia cells MV (4:11). The principle is that succinate dehydrogenase in mitochondria in living cells can reduce exogenous thiazole blue to insoluble blue crystal Formazan.
• 1. MV4-11 cells in logarithmic growth phase were accurately counted at 16000 cells/mL, and the diluted cell solution was added to 96-well plates at 90 μL per well. • 2. Fresh medium was taken and sequentially added to a 96-well plate with cell fluid at 90 μL per well. • 3. […] 2 μL of the diluted compound was respectively added to a 96-well plate containing 98 μL of blank medium, and for DMSO group, 98 μL of blank medium was added into 2 μL of DMSO, and mixed for further use. • 5. The compound mixed with the medium was separately added to a 96-well plate in which cells were plated, in triplicate, 20 μL per well, and were mixed. The blank group was added with 200 μL of IMDM medium, and the DMSO group was added with 180 μL of the cell-containing medium in DMSO diluted with the medium. • 6. […]
On the technique in general: Tetrazolium dyes change colour on reduction, which living cells bring about.

[1] abbreviates: 72 h, MV4-11, 3 days, read-out: MTS 3 D.
Setting [2] is: 240 h, MV4-11, 10 days, read-out: MTS 10 D.

Regarding `FC1(CN[C@@H]2C[C@H]2c2ccccc2)CCN(Cc2ccccc2)CC1` (relative stereo) [Example A6, N-((1-Benzyl-4-fluoropiperidin-4-yl)methyl)-trans-2-phenylcyclopropylamine], the IC50 by setting is: under setting [1], more than 20 µM; under setting [2], 1.02 ± 2.44 µM.

Take `O=C(CCc1ccccc1)N1CCC(F)(CN[C@@H]2C[C@H]2c2ccccc2)CC1` (relative stereo) [Example A8, 1-(4-fluoro-4-(((trans-2-phenylcyclopropyl)amino)methyl)piperidin-1-yl)-3-phenyl-1-propanone]: the IC50 reads like this: under setting [1], more than 20 µM; under setting [2], 0.27 ± 0.37 µM.

Turning to `O=C(CCC1CCCCC1)N1CCC(F)(CN[C@@H]2C[C@H]2c2ccccc2)CC1` (relative stereo) [Example A10, 3-cyclohexyl-1-(4-fluoro-4-(((trans-2-phenylcyclopropyl)amino)methyl)piperidin-1-yl)-1-propanone], the IC50 by setting is: under setting [1], more than 20 µM; under setting [2], 0.6 ± 1.09 µM.

For the compound `FC1(CN[C@@H]2C[C@H]2c2ccccc2)CCN(CCCc2ccccc2)CC1` (relative stereo) [Example A12, N-((4-fluoro-1-(3-phenylpropyl)piperidin-4-yl)methyl)-trans-2-phenylcyclopropylamine], the IC50 under setting [1] is more than 20 µM and the IC50 under setting [2] turned out to be 0.96 µM.

In the case of `FC1(CN[C@@H]2C[C@H]2c2ccccc2)CCN(CCCC2CCCCC2)CC1` (relative stereo) [Example A14, N-((1-(3-Cyclohexylpropyl)-4-fluoropiperidin-4-yl)methyl)-trans-2-phenylcyclopropylamine], the IC50 under setting [1] came out at 8.17 ± 0.35 µM and the IC50 under setting [2] stood at 13 ± 0.42 µM.

On to `CN1CCC(F)(CN[C@@H]2C[C@H]2c2ccccc2)CC1` (relative stereo) [Example A15, N-((4-Fluoro-1-methylpiperidin-4-yl)methyl)-trans-2-phenylcyclopropylamine], for which the IC50 under setting [1] was more than 20 µM and the IC50 under setting [2] was found to be 0.33 ± 0.16 µM.

Turning to `CS(=O)(=O)c1ccc(CN2CCC(F)(CN[C@@H]3C[C@H]3c3ccccc3)CC2)cc1` (relative stereo) [Example A16, N-((4-Fluoro-1-(4-(methylsulfonyl)benzyl)piperidin-4-yl)methyl)-trans-2-phenylcyclopropylamine], the IC50 under setting [1] was more than 20 µM.

As to `FC1(CN[C@@H]2C[C@H]2c2ccccc2)CCCCC1` (relative stereo) [Example A18, N-((1-Fluorocyclohexyl)methyl)-trans-2-phenylcyclopropylamine], the IC50 under setting [1] was more than 20 µM and the IC50 under setting [2] turned out to be 3 ± 5.19 µM.

For the compound `CS(=O)(=O)N1CCC(F)(CN[C@@H]2C[C@H]2c2ccccc2)CC1` (relative stereo) [Example A93, N-((4-Fluoro-1-(methylsulfonyl)piperidin-4-yl)methyl)-trans-2-phenylcyclopropylamine], the IC50 was more than 20 µM under setting [1] and 0.239 ± 0.004 µM under setting [2].

As to `O=C(OCC1CNC1)N1CCC(F)(CN[C@@H]2C[C@H]2c2ccccc2)CC1` (relative stereo) [Example A94, Azetidin-3-ylmethyl 4-fluoro-4-(((trans-2-phenylcyclopropyl)amino)methyl)piperidine-1-carboxylate], the IC50 is more than 20 µM under setting [1] and 0.039 ± 0.011 µM under setting [2].

With `O=C(OC1CCNCC1)N1CCC(F)(CN[C@@H]2C[C@H]2c2ccccc2)CC1` (relative stereo) [Example A95, Piperidin-4-yl 4-fluoro-4-(((trans-2-phenylcyclopropyl)amino)methyl)piperidine-1-carboxylate], the IC50 is, setting by setting: under setting [1], more than 20 µM; under setting [2], 1.24 ± 0.844 µM.

In the case of `N#Cc1ccc(CN2CCC(F)(CN[C@@H]3C[C@H]3c3ccccc3)CC2)cc1` (relative stereo) [Example A96, 4-((4-Fluoro-4-(((trans-2-phenylcyclopropyl)amino)methyl)piperidin-1-yl)methyl)benzonitrile], the IC50 under setting [1] was more than 20 µM and the IC50 under setting [2] was found to be 0.159 ± 0.074 µM.

With `FC1(CN[C@@H]2C[C@H]2c2ccccc2)CCN(Cc2ccsc2)CC1` (relative stereo) [Example A98, N-((4-Fluoro-1-(thiophen-3-ylmethyl)piperidin-4-yl)methyl)-trans-2-phenylcyclopropylamine], the IC50 under setting [1] was more than 20 µM and the IC50 under setting [2] worked out at 0.064 ± 0.026 µM.

On to `O=C(O)c1ccc(CN2CCC(F)(CN[C@@H]3C[C@H]3c3ccccc3)CC2)cc1` [(1R,2S)-A5, 4-((4-Fluoro-4-((((1R,2S)-2-phenylcyclopropyl)amino)methyl)piperidin-1-yl)methyl)benzoate], for which the IC50 by setting is: under setting [1], more than 20 µM; under setting [2], 0.29 ± 0.19 µM.

Turning to `O=C(O)c1ccc(CN2CCC(F)(CN[C@H]3C[C@@H]3c3ccccc3)CC2)cc1` [(1S,2R)-A5, 4-((4-Fluoro-4-((((1S,2R)-2-phenylcyclopropyl)amino)methyl)piperidin-1-yl)methyl)benzoate], the IC50 was more than 20 µM under setting [1] and 3.77 ± 1.19 µM under setting [2].

`O=C(OCC1CCNCC1)N1CCC(F)(CN[C@H]2C[C@@H]2c2ccccc2)CC1` [(1S,2R)-A43]: the IC50 is, setting by setting: under setting [1], more than 20 µM; under setting [2], 0.96 ± 0.444 µM.

For the compound `O=C(Oc1ccccc1)N1CCC(F)(CNC2CC2c2ccccc2)CC1` (stereo not drawn) [Example A9, Phenyl 4-Fluoro-4-((trans-2-phenylcyclopropyl)amino)methyl)piperidine-1-carboxylate], the IC50 by setting is: under setting [1], more than 20 µM; under setting [2], 1.16 ± 0.15 µM.

Take `CNC1CCC(F)(CNC2CC2c2ccccc2)CC1` (stereo not drawn) [Example A11, 4-fluoro-N-methyl-4-(((trans-2-phenylcyclopropyl)amino)methyl)cyclohexane-1-amine]: the IC50 under setting [1] was more than 20 µM.

With `O=C(NC1CCC(F)(CNC2CC2c2ccccc2)CC1)OCc1ccccc1` (stereo not drawn) [Example A19, Benzyl 4-fluoro-4-((trans-2-phenylcyclopropyl)amino)methyl)cyclohexyl)carbamate], the IC50 is, setting by setting: under setting [1], more than 20 µM; under setting [2], 2.57 ± 1.66 µM.

`O=C(O)c1ccc(CN2CCC(COC(=O)N3CCC(F)(CNC4CC4c4ccccc4)CC3)CC2)cc1` (stereo not shown) [Example A91]: the IC50 runs as follows: under setting [1], more than 20 µM; under setting [2], 1.7 ± 0.83 µM.

`O=S(=O)(CC1CCNCC1)N1CCC(F)(CNC2CC2c2ccccc2)CC1` (stereo not drawn) [Example A92, N-((4-Fluoro-1-(piperidin-4-ylmethyl)sulfonyl)piperidin-4-yl)methyl)-trans-2-phenylcyclopropylamine]: the IC50 under setting [1] is more than 20 µM and the IC50 under setting [2] is 0.132 ± 0.055 µM.

As to `CC(C)(C)OC(=O)c1ccc(CN2CCC(F)(CNC3CC3c3ccc(Br)s3)CC2)cc1` (stereo not shown) [Example A101, Tert-Butyl 4-((4-(((2-(5-bromothien-2-yl))cyclopropyl)amino)methyl)-4-fluoropiperidin-1-yl)methyl)benz Oate], the IC50 under setting [1] came out at 2.21 ± 0.63 µM and the IC50 under setting [2] is more than 20 µM.

With `O=C(O)c1ccc(CN2CCC(F)(CNC3CC3c3ccc(Br)s3)CC2)cc1` (stereo not shown) [Example A102], the IC50 by setting is: under setting [1], more than 20 µM; under setting [2], more than 20 µM.

For `CC(C)(C)OC(=O)c1ccc(CN2CCC(F)(CNC3CC3c3ccc(-c4ccc(F)cc4)s3)CC2)cc1` (stereo not shown) [Example A105, Tert-butyl 4-((4-fluoro-4-(((2-(5-(4-fluorophenyl)thiophen-2-yl)cyclopropyl)amino)methyl)piperidin-1-yl)methyl)benzoate], the IC50 is, setting by setting: under setting [1], 1.95 ± 0.6 µM; under setting [2], 8.35 ± 0.71 µM.

On to `CC(C)(C)OC(=O)c1ccc(CN2CCC(F)(CNC3CC3c3ccc(-c4ccc(Cl)cc4)s3)CC2)cc1` (stereo not shown) [Example A106], for which the IC50 is, setting by setting: under setting [1], 1.71 ± 0.22 µM; under setting [2], 9.99 ± 1.5 µM.

As for `CC(C)(C)OC(=O)c1ccc(CN2CCC(F)(CNC3CC3c3ccc(-c4ccc(C(F)(F)F)cc4)s3)CC2)cc1` (stereo not shown) [Example A107, Tert-butyl 4-((4-fluoro-4-(((2-(5-(4-(trifluoromethyl)phenyl)thiophen-2-yl)cyclopropyl)amino)methyl)piperidin-1-yl)methyl)benzoate], the IC50 by setting is: under setting [1], 0.75 ± 0.15 µM; under setting [2], 13 ± 1.9 µM.

Consider `CC(C)(C)OC(=O)c1ccc(CN2CCC(F)(CNC3CC3c3ccc(-c4ccccc4)s3)CC2)cc1` (stereo not shown) [Example A108, Tert-butyl 4-((4-fluoro-4-(((2-(5-phenylthiophen-2-yl)cyclopropyl)amino)methyl)piperidin-1-yl)methyl)benzoate], for which the IC50 by setting is: under setting [1], 2.64 ± 0.97 µM; under setting [2], 11.9 ± 2.04 µM.

Consider `CC(C)(C)OC(=O)c1ccc(CN2CCC(F)(CNC3CC3c3ccc(-c4cccc5ccccc45)s3)CC2)cc1` (stereo not shown) [Example A109, tert-Butyl 4-((4-fluoro-4-(((2-(5-(naphthalen-1-yl)thiophen-2-yl)cyclopropyl)amino)methyl)piperidine-1-yl)methyl)benzoate], for which the IC50 under setting [1] stood at 2.1 ± 0.12 µM and the IC50 under setting [2] was 4.7 ± 1.68 µM.

For `O=C(OCC1CCNCC1)N1CCC(F)(CNC2CC2c2ccc(-c3ccc(C(F)(F)F)cc3)s2)CC1` (stereo not shown) [Example A110, Piperidin-4-ylmethyl 4-fluoro-4-(((2-(5-(4-(trifluoromethyl)phenyl)thiophen-2-yl)cyclopropyl)amino)methyl) piperidine-1-carboxylate], the IC50 worked out at 2.59 ± 0.14 µM under setting [1] and 5.93 ± 0.35 µM under setting [2].

Turning to `O=C(OCC1CCNCC1)N1CCC(F)(CNC2CC2c2ccc(Br)s2)CC1` (stereo not shown) [Example A111, Piperidin-4-ylmethyl 4-(((2-(5-bromothien-2-yl)cyclopropyl)amino)methyl)-4-fluoropiperidine-1-carboxylate], the IC50 runs as follows: under setting [1], more than 20 µM; under setting [2], 19.9 ± 0.86 µM.
